The values below come from patent US8324345B2, “HLA-binding peptide, precursor thereof, DNA fragment and recombinant vector encoding the same” (priority 2006, dated 2012).

No end group written: not given here.

What is called Kd is the equilibrium constant for the complex coming apart. Low values mean higher affinity, high ones lower affinity.

The first assay concerns the target HLA-A2 molecule (the product of HLA-A*0206 gene) (Homo sapiens, UniProt P04439, D140Y/D185E/D98H/E176V/E277Q/F33Y/G131W/G231S/I119V/I121R/I166T/I218V/L300P/L318F/N151K/N90K/P208A/P217A/Q86G/Q94H/R138H/R169H/T345S). Put plainly: cell-based.
Conditions: not given
ALVAFLRFL [SEQ ID NO 21] gave a Kd of 1080 nM.
In turn, HVLGRLITV [compound 45] gave a Kd of 557 nM.
In the case of IVLEHGSCV [compound 46], the Kd is 952 nM.
Same read-out and setting: the result for LALLAAFKV [compound 43] reads 341 nM.
The same measure, in the same setting: the result for LVISGLFPV [compound 41] reads 245 nM.
On the same count and under the same terms, the result for QILEENVEV [compound 50] reads 2480 nM.
For the sequence SVIEKMEAL [compound 48], the Kd was 422 nM.
The same measure, in the same setting: next, YVVIAILTV [compound 47]: 1380 nM.

The target in a further assay is HLA-A2 molecule (the product of HLA-A*0201 gene) (Homo sapiens, UniProt P04439, D140Y/D185E/D98H/E176V/E277Q/G131W/G231S/I119V/I121R/I166T/I218V/L300P/L318F/N151K/N90K/P208A/P217A/Q86G/Q94H/R138H/R169H/T345S). Nature of the assay: Binding experiment of the peptides to an HLA-A0201 molecule (JY cells, flow cytometry).
Conditions: not given
As for the experimental part: After neutralization, a reassemble experiment was performed.
The above JY cells and purified β 2 m were added to a serial dilution of the peptide whose binding affinity was to be measured. Then, the mixture was incubated on ice for 4 hours.
(Flow cytometry measures light scatter and fluorescence of single cells or particles in a stream.)
Take ALHQVFGAI [compound 38]: binding was characterised by a dissociation constant (Kd) of 170 nM.
As to ELPETLETL [compound 40], the Kd is 474 nM.
Sequence FLIDGPETA [compound 35] gave a Kd of 883 nM.
For FQPESPSKL [compound 36], the Kd is 487 nM.
The same measure, in the same setting: next, ILIRTGLLV [compound 33]: 298 nM; IVLEHGSCV [compound 27]: 1830 nM.
Regarding LLFKTENGV [compound 28], the Kd was 33.5 nM.
Still for that read-out and setting: next, NLVRLQSGV [compound 30]: 20100 nM.
PLNEAIMAV [compound 29] showed a Kd of 320 nM.
As to SLRPQPTEL [compound 34], the Kd was 8910 nM.
In turn, YMPSVIEKM [compound 39] showed a Kd of 266 nM.

A further assay has as its system human HLA-A type molecule. Put plainly: Binding experiments, summary statement for HLA-A type molecules. The settings on record: summary of the binding experiments. As for the experimental part:
The peptides' binding affinity to an HLA-A24 molecule (the product of HLA-A*2402 gene) was measured by using C1R-A24 cells that express the HLA-A*2402 gene (produced by and provided with permission of Professor Masafumi Takiguchi, Kumamoto University).
For ALVAFLRFL [SEQ ID NO 21], the “binding affinity to a human HLA-A type molecule (in words)” value is on record as “experimentally confirmed to have binding affinity”.
